Experimental data reported in patent US20140294724A1, “COMPOSITIONS AND METHODS FOR TREATMENT OF PROTEINOPATHIES” (Intellect Neurosciences, Inc., priority 2011, published 2014).
Values joined by “and” are separate entries in the source; they are usually repeats but may differ in a detail not shown here. Equal values may be shown once.

Experiments:
[1] = Oxygen Radical Absorbance Capacity assay (ORAC antioxidant test); type: biochemical; details: for Calculated Trolox® equivalents: ratio of slope of sample to slope of Trolox® (Eq. 3)
Source text: Sodium Fluorescein was purchased from Invitrogen. 2,2′-Azobis(2-amidinopropane) dihydrochloride (AAPH), 6-hydroxy-2,5,7,8-tetramethylchroman-2-carboxylic acid (Trolox®), gallic acid, Epigallocatechin gallate (EGCG), epigallocatechin (EGC), and quercetin dihydrate were purchased from Sigma-Aldrich (St. Louis, Mo.). Black-sided, special optics clear bottom plates (part #3615) were obtained from Corning.
The ORAC assay depends on the free radical damage to a fluorescent probe, such as fluorescein, to result in a downward change of fluorescent intensity. The assumption is that the degree of change is indicative of the amount of radical damage. […] This inhibition is observed as a preservation of the fluorescent signal. Reactions containing antioxidants and or blanks are run in parallel using equivalent amounts of a molecule capable of generating super reactive oxygen species (ROS) and fluorescent probe. Because the reaction is driven to completion, one can quantitate the protection by calculating the area under the curve (AUC) from the experimental sample. After subtracting the AUC from the blank, the resultant difference would be the protection conferred by the antioxidant compound. […] The ORAC assay is unique in that because the assay is driven to completion the AUC calculation combines both the inhibition time as well inhibition percentage of free radical damage by the antioxidant into a single quantity.
Reactive oxygen species generators were added to parallel reactions containing equal amounts of a fluorescent probe. Reactions contained either a buffer blank or antioxidant samples and standards. The antioxidant capacity of a sample is the net difference between the area under the curve (AUC) of the sample and that of the blank. The exterior wells were not used for experimental determinations. 200 μL of MilliQ dH2O was added to the outer wells surrounding the test wells in order to minimize evaporation. 150 μL sodium fluorescein was added to experimental wells. […] The plate was allowed to equilibrate by incubating for 30 min in the Victor2^V Microplate Reader (Perkin Elmer, Waltham, Mass.) at 37° C. Reactions were initiated by the addition 25 μL of AAPH solution (free radical initiator) for a final reaction volume of 200 μl. The fluorescence was monitored kinetically in Victor2V with temperature control reader for at least 80 min with data taken every minute. Fast orbital shaking (0.5 mm) for 10 sec was performed prior to each reading. The temperature was set to 37° C. at all time and the reagents were treated as light sensitive.
AUC=(R1/R1)+(R2/R1)+(R3/R1)+ . . . +(Rn/R1) (Eq. 1)
Where R1 is the fluorescence reading at the initiation of the reaction and Rn is the last measurement.
Net AUC=AUC(sample)−AUC(blank) (Eq. 2)
The resultant standard curve was then interpolated to determine of antioxidant capacity of the samples and reported as Trolox® equivalence. To determine Trolox® equivalents of each sample range the ratio of the slope (m) of the linear regression analysis of the sample to the slope of the linear regression of Trolox® was used:
TE(range of concentrations)=m(sample)/m(Trolox®) (Eq. 3)

[2] = system: moderate-stage AD patients; details: 2000 IU per day; cited from earlier work
[3] = system: patients with AD; details: 250 mg dose, cited from earlier work
[4] = target: T1, β-Amyloid 1-40 peptide (Homo sapiens, UniProt P05067); test: β-Amyloid aggregation, Thioflavin T fluorescence assay; type: biochemical; details: 24 hours; for reduction of fibrillogenesis: with ApoE4 added (about 1/80 of test compound), equimolar with Aβ; for potency in reducing fibrillogenesis compared with melatonin: with ApoE4 added
T1 construct: 60 μM β-Amyloid 1-40
T1 sequence (P05067 672-711): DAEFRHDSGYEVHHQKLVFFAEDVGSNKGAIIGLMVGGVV
Method: In a NUNC PP 96-well plate 100 μL of MilliQ dH2O was added to the outer wells surrounding the test wells in order to minimize evaporation. Samples in a final volume of 100 μl/well were added to the 96-well plate as follows:
Aggregation was measured at 0 and 24 hours incubation time.
5 μL was obtained from each test sample after incubation and added to 2 mL of a glycine/NaOH buffer (50 mM, pH 9.2) containing 3 μM thioflavin T. Fluorescence intensities were measured at an excitation wavelength of 450 nm and an emission wavelength of 485 nm in a Envision fluorescence spectrophotometer. A time scan of fluorescence intensity was performed, and three measurements were taken after the decay reached a plateau at 200, 220, and 240 s and averaged after subtracting the background fluorescence of 3 μM thioflavin T in the blank buffers. […] All measurements were taken in triplicate. Siliconized polypropylene microcentrifuge tubes (USA Scientific) were used for these experiments. Solutions of recombinant apolipoproteins were immediately lyophilized and, prior to being used, resuspended in 0.1 M tris-phosphate-HCl buffer (pH 7.4). […] Solutions of Aβ were prepared by dissolving 2.2 mg of the peptide in 1 mL of 50 mM buffer at pH 9.6. Aliquots (50 uL) of this solution were lyophilized and stored at −80° C. until they were needed for the experiments. Working stock solutions of the peptide (concentration of 500 uM) were prepared in HPLC-grade water immediately prior to the experiments. The absence of aggregates and amyloid fibrils in these solutions was verified by spectrofluorometry.

In the case of `Cc1c(C)c2c(c(C)c1O)CCC(C)(C(=O)O)O2` (stereo not shown) [Trolox, 6-hydroxy-2,5,7,8-tetramethylchroman-2-carboxylic acid], the “protection of fluorescein against oxidation” value ([1]; 6.25 μM, lowest concentration tested, versus buffer only control) is reported as “only slight protection”, the “duration of virtually full protection of fluorescein against oxidation” value ([1]; 100 μM, highest concentration tested) is reported as “approximately 20 minutes” and the AUC ([1]; Concentration 0.390625) is reported as 11.95 and 13.53 and 11.49. For the same compound, the “Net AUC” value ([1]; Concentration 0.390625) was 5.30 and 7.10 and 5.27, the AUC ([1]; Concentration 0.78125) was 14.90 and 15.01 and 14.62 and the “Net AUC” value ([1]; Concentration 0.78125) was 8.24 and 8.58 and 8.39. For the same compound, the AUC ([1]; Concentration 1.5625) was 20.00 and 19.69 and 19.52, the “Net AUC” value ([1]; Concentration 1.5625) was 13.34 and 13.26 and 13.30 and the AUC ([1]; Concentration 3.125) was 28.96 and 29.49 and 28.51. The “Net AUC” value ([1]; Concentration 3.125) was 22.31 and 23.06 and 22.29, the AUC ([1]; Concentration 6.25) was 44.91 and 44.55 and 43.41 and the “Net AUC” value ([1]; Concentration 6.25) was 38.25 and 38.12 and 37.18. The AUC ([1]; Concentration 12.5) was 77.61 and 74.88 and 73.04, the “Net AUC” value ([1]; Concentration 12.5) was 70.96 and 68.45 and 66.81 and the AUC ([1]; Concentration 25) was 96.34 and 100.28 and 98.61. For the same compound, the “Net AUC” value ([1]; Concentration 25) was 89.68 and 93.85 and 92.39, the AUC ([1]; Concentration 50) was 98.05 and 97.48 and 100.67 and the “Net AUC” value ([1]; Concentration 50) was 91.40 and 91.05 and 94.45. The AUC ([1]; Concentration 100) was 95.82 and 99.05 and 97.58 and the “Net AUC” value ([1]; Concentration 100) was 89.17 and 92.62 and 91.35.

In the case of `Cc1c(C)c2c(c(C)c1O)CCC(C)(CCCC(C)CCCC(C)CCCC(C)C)O2` (stereo not drawn) [Vitamin E, α-tocopherol], the “delay in reaching the end points of institutionalization, loss of major activities of daily living, or death” value [2] is given as “small but significant delay” and the “loss of cognitive performance” value [2] is given as “did not delay”.

In the case of `CN(C)Cc1ccc2c(Cl)cc(Cl)c(O)c2n1` [PBT2], the tolerability ([3]; patients with AD) is given as “well-tolerated”, the “cerebrospinal fluid (CSF) levels of amyloid-beta42” value ([3]; within 12 weeks of treatment) is given as “significantly lowered” and the “executive function on a Neuro-psychological Test Battery (NTB)” value ([3]; within 12 weeks of treatment) is given as “significantly improved”.

In the case of `COc1ccc2[nH]cc(CCNC(C)=O)c2c1` [Melatonin, N-[2-(5-Methoxyindol-3-yl)ethyl]acetamide], the AUC ([1]; Concentration 0.390625) is reported as 14.74, the “Net AUC” value ([1]; Concentration 0.390625) is reported as 8.09 and the AUC ([1]; Concentration 0.78125) is reported as 20.89. For the same compound, the “Net AUC” value ([1]; Concentration 0.78125) was 14.24, the AUC ([1]; Concentration 1.5625) was 28.74 and the “Net AUC” value ([1]; Concentration 1.5625) was 22.09. For the same compound, the AUC ([1]; Concentration 3.125) was 42.59, the “Net AUC” value ([1]; Concentration 3.125) was 35.94 and the AUC ([1]; Concentration 6.25) was 66.10. The “Net AUC” value ([1]; Concentration 6.25) was 59.45, the AUC ([1]; Concentration 12.5) was 88.65 and the “Net AUC” value ([1]; Concentration 12.5) was 82.00. The AUC ([1]; Concentration 25) was 93.12, the “Net AUC” value ([1]; Concentration 25) was 86.47 and the AUC ([1]; Concentration 50) was 94.75. For the same compound, the “Net AUC” value ([1]; Concentration 50) was 88.10, the AUC ([1]; Concentration 100) was 91.48 and the “Net AUC” value ([1]; Concentration 100) was 84.82.

In the case of `COc1ccc2[nH]cc(CCNC(=O)CCOCCOCCOCCOCCNC(=O)CCN3C(=O)CC(SC[C@H](N)C(=O)O)C3=O)c2c1` (stereo partly drawn) [Example 2, (2R)-2-amino-3-((1-(1-(5-methoxy-1H-indol-3-yl)-4,20-dioxo-7,10,13,16-tetraoxa-3,19-diazadocosan-22-yl)-2,5-dioxopyrrolidin-3-yl)thio)propanoic acid], the reduction of fibrillogenesis [4] is reported as 75%, the “potency in reducing fibrillogenesis compared with melatonin” value [4] is reported as “about 2 fold” and the AUC ([1]; Concentration 0.390625) is reported as 13.97. For the same compound, the “Net AUC” value ([1]; Concentration 0.390625) was 7.75, the AUC ([1]; Concentration 0.78125) was 20.49 and the “Net AUC” value ([1]; Concentration 0.78125) was 14.27. For the same compound, the AUC ([1]; Concentration 1.5625) was 28.06, the “Net AUC” value ([1]; Concentration 1.5625) was 21.84 and the AUC ([1]; Concentration 3.125) was 45.62. For the same compound, the “Net AUC” value ([1]; Concentration 3.125) was 39.39, the AUC ([1]; Concentration 6.25) was 71.79 and the “Net AUC” value ([1]; Concentration 6.25) was 65.56. For the same compound, the AUC ([1]; Concentration 12.5) was 94.48, the “Net AUC” value ([1]; Concentration 12.5) was 88.26 and the AUC ([1]; Concentration 25) was 97.13. For the same compound, the “Net AUC” value ([1]; Concentration 25) was 90.91, the AUC ([1]; Concentration 50) was 97.12 and the “Net AUC” value ([1]; Concentration 50) was 90.90. For the same compound, the AUC ([1]; Concentration 100) was 96.55, the “Net AUC” value ([1]; Concentration 100) was 90.33 and the “Calculated Trolox® equivalents” value [1] was 1.97 Trolox® equivalents.

In the case of `COc1ccc2[nH]cc(CCNC(=O)CCCCCN3C(=O)CC(SC[C@H](N)C(=O)O)C3=O)c2c1` (stereo partly drawn) [Example 1, (2R)-2-amino-3-((1-(6-((2-(5-methoxy-1H-indol-3-yl)ethyl)amino)-6-oxohexyl)-2,5-dioxopyrrolidin-3-yl)thio)propanoic acid], the reduction of fibrillogenesis [4] is reported as 75%, the “potency in reducing fibrillogenesis compared with melatonin” value [4] is reported as “about 2 fold” and the AUC ([1]; Concentration 0.390625) is reported as 14.99. The “Net AUC” value ([1]; Concentration 0.390625) was 8.56, the AUC ([1]; Concentration 0.78125) was 20.01 and the “Net AUC” value ([1]; Concentration 0.78125) was 13.58. For the same compound, the AUC ([1]; Concentration 1.5625) was 29.51, the “Net AUC” value ([1]; Concentration 1.5625) was 23.08 and the AUC ([1]; Concentration 3.125) was 46.55. The “Net AUC” value ([1]; Concentration 3.125) was 40.12, the AUC ([1]; Concentration 6.25) was 74.68 and the “Net AUC” value ([1]; Concentration 6.25) was 68.25. The AUC ([1]; Concentration 12.5) was 93.56, the “Net AUC” value ([1]; Concentration 12.5) was 87.13 and the AUC ([1]; Concentration 25) was 93.03. For the same compound, the “Net AUC” value ([1]; Concentration 25) was 86.60, the AUC ([1]; Concentration 50) was 88.39 and the “Net AUC” value ([1]; Concentration 50) was 81.96. The AUC ([1]; Concentration 100) was 82.12, the “Net AUC” value ([1]; Concentration 100) was 75.69 and the “Calculated Trolox® equivalents” value [1] was 2.02 Trolox® equivalents.
